{
  "source": "patent US20120253007A1",
  "about": "(The Government of the United States of America, as …, priority 2011, published 2012)",
  "test_system": "leukocyte migration (chemotaxis) stimulated by f-MLP",
  "assay": "leukocyte chemotaxis assay: leukocyte migration stimulated by f-MLP",
  "details": "concentration not given",
  "data": [
    {"substance": "cyclosporin H", "values": [
      {"measurement": "activity in studies involving leukocyte chemotaxis induced by f-MLP (result in words)", "value": "functionally active"},
      {"measurement": "activity in studies involving leukocyte chemotaxis induced by f-MLP (result in words)", "setting": "listed as purified cyclosporin H", "value": "active"}
    ]}
  ]
}
